Earlier results in patent US6096864A, “Peptides for use in wound treatment” (Johnson & Johnson Medical, Ltd., priority 1998, dated 2000).

Tested on: human fibroblast
Settings: concentration range 2.5 mM to 25 mM

Substance: Gly-Pro-Ala
- chemotactic activity: no chemotactic activity
